# Laboratory results as given in the supplement of paper PMC10307832.
# Key:
# Assay in all cases: relative viability (nuclei count vs DMSO), 5 days (fraction); higher = more cells survive
# [1] = compound: CC(=O)Nc1cccc(-n2c(=O)n(C3CC3)c(=O)c3c(Nc4ccc(I)cc4F)n(C)c(=O)c(C)c32)c1 [Trametinib] + C[C@]1(O)C[C@@H](c2nc(-c3ccc4ccc(-c5ccccc5)nc4c3)c3c(N)nccn32)C1 [Linsitinib] (partner 1 µM)
# Outline: (§1)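 Relative viability is defined as nuclei in treated wells over nuclei in vehicle wells. Duplicate plates were run and medians reported. Lung cancer cell lines in 1536-well plates were dosed by pin tool one day after seeding, with one drug or with a fixed anchor-drug dose plus five library-drug doses (not always all listed) in √10 steps, and nuclei were counted after 5 days.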
# [2] = compound: CN1C=C(C2=CC=CC=C21)/C=C\3/C4=C(C=CC=N4)NC3=O + CC1(C)CCC(c2ccc(Cl)cc2)=C(CN2CCN(c3ccc(C(=O)NS(=O)(=O)c4ccc(N[C@H](CCN5CCOCC5)CSc5ccccc5)c(S(=O)(=O)C(F)(F)F)c4)cc3)CC2)C1 [Navitoclax] (partner 0.5 µM)
# Outline: as §1
# [3] = compound: CC(=O)Nc1cccc(-n2c(=O)n(C3CC3)c(=O)c3c(Nc4ccc(I)cc4F)n(C)c(=O)c(C)c32)c1 [Trametinib] + Cc1cc(Nc2cc(N3CCN(C)CC3)nc(Sc3ccc(NC(=O)C4CC4)cc3)n2)n[nH]1 [Tozasertib] (partner 0.1 µM)
# Outline: as §1
# [4] = compound: CC(=O)Nc1cccc(-n2c(=O)n(C3CC3)c(=O)c3c(Nc4ccc(I)cc4F)n(C)c(=O)c(C)c32)c1 [Trametinib] + CC1(C)CCC(c2ccc(Cl)cc2)=C(CN2CCN(c3ccc(C(=O)NS(=O)(=O)c4ccc(N[C@H](CCN5CCOCC5)CSc5ccccc5)c(S(=O)(=O)C(F)(F)F)c4)cc3)CC2)C1 [Navitoclax] (partner 0.5 µM)
# Outline: as §1
cell line,measurement,setting,value
UMC-11,relative viability,[1]; first compound 0.0025 µM,1.01
same,relative viability,[1]; first compound 0.007906 µM,1.04
same,relative viability,[1]; first compound 0.025 µM,0.929
same,relative viability,[1]; first compound 0.07906 µM,1.07
same,relative viability,[1]; first compound 0.25 µM,0.974
same,relative viability,[2]; first compound 0.02 µM,0.24
same,relative viability,[2]; first compound 0.06325 µM,0.318
same,relative viability,[2]; first compound 0.2 µM,0.288
same,relative viability,[2]; first compound 0.6325 µM,0.362
same,relative viability,[2]; first compound 2 µM,0.391
same,relative viability,[3]; first compound 0.0025 µM,0.199
same,relative viability,[3]; first compound 0.007906 µM,0.195
same,relative viability,[3]; first compound 0.07906 µM,0.19
same,relative viability,[3]; first compound 0.25 µM,0.211
same,relative viability,[4]; first compound 0.0025 µM,0.305
same,relative viability,[4]; first compound 0.007906 µM,0.32
same,relative viability,[4]; first compound 0.025 µM,0.288
same,relative viability,[4]; first compound 0.07906 µM,0.266
same,relative viability,[4]; first compound 0.25 µM,0.263
